# Measurements taken from the Kinase Knowledgebase extract (Sharma et al. 2016).
# Molecular target: MAPK14 (human) (UniProt Q16539)
# Test: In vitro Inhibition of VEGF Stimulated MAPK Activation
# MAPK14 (human), sequence (Q16539 whole entry, looked up): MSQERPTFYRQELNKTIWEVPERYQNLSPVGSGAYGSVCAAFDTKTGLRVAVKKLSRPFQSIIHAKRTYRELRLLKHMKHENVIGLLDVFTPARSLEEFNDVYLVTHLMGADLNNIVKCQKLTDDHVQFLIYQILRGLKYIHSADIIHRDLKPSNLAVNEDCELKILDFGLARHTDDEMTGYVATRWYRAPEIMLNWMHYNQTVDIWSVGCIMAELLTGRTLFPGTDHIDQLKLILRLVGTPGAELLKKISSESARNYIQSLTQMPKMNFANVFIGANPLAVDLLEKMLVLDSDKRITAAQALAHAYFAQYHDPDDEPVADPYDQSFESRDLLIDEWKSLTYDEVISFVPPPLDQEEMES
row,SMILES,IC50
1,COc1cc2nccc(Oc3ccc(NC(=O)Nc4ccccn4)c(C)c3C)c2cc1OC,3.5 nM
2,COc1cc2nccc(Oc3ccc(NC(=O)Nc4ccc(F)cc4C)c(C)c3C)c2cc1OC,3.9 nM
3,COc1ccccc1NC(=O)Nc1ccc(Oc2ncnc3cc(OC)c(OC)cc23)cc1,1.2 nM
4,COc1cc2nccc(Oc3ccc(NC(=O)Nc4ccc(F)cc4F)c([N+](=O)[O-])c3)c2cc1OC,0.5 nM
5,COCCOc1cc2nccc(Oc3ccc(NC(=O)Nc4ccc(F)cc4F)c(Cl)c3)c2cc1OC,0.5 nM
6,COc1cc2nccc(Oc3ccc(NC(=O)NCc4ccc(F)cc4F)c(F)c3)c2cc1OC,1.8 nM
7,COc1ccccc1NC(=O)Nc1ccc(Oc2ncnc3cc(OC)c(OC)cc23)cc1F,< 1 nM
8,COc1cc2ncnc(Oc3ccc(NC(=O)Nc4ccc(F)cc4)cc3)c2cc1OC,< 2 nM
9,COc1ccccc1NC(=O)Nc1cc(C)c(Oc2ccnc3cc(OCCN4CCOCC4)c(OC)cc23)cc1C,5.9 nM
10,COCCOc1cc2nccc(Oc3cc(C)c(NC(=O)Nc4ccccc4OC)cc3C)c2cc1OC,5.8 nM
11,COc1ccccc1NC(=O)Nc1ccc(Oc2ncnc3cc(OC)c(OC)cc23)cc1Cl,0.6 nM
12,COc1cc2nccc(Oc3ccc(NC(=O)Nc4ccc(F)cc4F)c(C)c3C)c2cc1OC,0.6 nM
13,CCNC(=O)Nc1ccc(Oc2ccnc3cc(OC)c(OC)cc23)cc1F,11 nM
14,COc1cc2ncnc(Oc3ccc(NC(=O)Nc4ccc(F)cc4)c(C)c3)c2cc1OC,2.3 nM
15,CCCNC(=O)Nc1ccc(Oc2ncnc3cc(OC)c(OC)cc23)cc1C,150 nM
16,COc1cc2nccc(Oc3cc(C)c(NC(=O)Nc4ccccc4C)cc3C)c2cc1OC,5.9 nM
17,COc1cc2nccc(Oc3ccc(NC(=O)Nc4cccc5ccccc45)c(Cl)c3)c2cc1OC,5.4 nM
18,CCCNC(=O)Nc1ccc(Oc2ncnc3cc(OC)c(OC)cc23)c(C)c1,518 nM
19,COc1ccccc1NC(=O)Nc1ccc(Oc2ccnc3cc(OC)c(OC)cc23)c(C)c1C,1.7 nM
20,COc1cc2nccc(Oc3ccc(NC(=O)Nc4ccc(Cl)cc4C)c(C)c3C)c2cc1OC,7.3 nM
21,COc1cc2nccc(Oc3ccc(NC(=O)Nc4ccc(Br)cn4)c(C)c3C)c2cc1OC,4.4 nM
22,CCCCNC(=O)Nc1ccc(Oc2ncnc3cc(OC)c(OC)cc23)cc1C,53 nM

row,SMILES,IC50
1,CCCNC(=O)Nc1ccc(Oc2ccnc3cc(OC)c(OC)cc23)cc1Cl,2.2 nM
2,COc1ccc(NC(=O)Nc2cc(C)c(Oc3ccnc4cc(OC)c(OC)cc34)cc2C)c(OC)n1,2 nM
3,COc1cc2ncnc(Oc3ccc(NC(=O)NCc4ccc(F)cc4F)c(F)c3)c2cc1OC,14 nM
4,COc1cc2ncnc(Oc3ccc(NC(=O)Nc4ccc(Cl)cn4)c(Cl)c3)c2cc1OC,58 nM
5,CCCCCNC(=O)Nc1ccc(Oc2ncnc3cc(OC)c(OC)cc23)cc1,21 nM
6,CCCCNC(=O)Nc1ccc(Oc2ncnc3cc(OC)c(OC)cc23)cc1Cl,71 nM
7,CCNC(=O)Nc1ccc(Oc2ncnc3cc(OC)c(OC)cc23)cc1Cl,8 nM
8,COc1cc2ncnc(Oc3ccc(NC(=O)Nc4ccc(F)cc4F)c(C)c3)c2cc1OC,5.3 nM
9,CCCCNC(=O)Nc1ccc(Oc2ncnc3cc(OC)c(OC)cc23)cc1F,45 nM
10,COc1cc2nccc(Oc3ccc(NC(=O)Nc4ccccc4C)c(Cl)c3)c2cc1OC,0.6 nM
11,C#CCNC(=O)Nc1ccc(Oc2ncnc3cc(OC)c(OC)cc23)cc1,67 nM
12,CCNC(=O)Nc1ccc(Oc2ncnc3cc(OC)c(OC)cc23)cc1,70 nM
13,C#CCNC(=O)Nc1ccc(Oc2ccnc3cc(OC)c(OC)cc23)cc1F,5.2 nM
14,COc1cc2ncnc(Oc3ccc(NC(=O)Nc4ccc(F)cc4)cc3C)c2cc1OC,5.2 nM
15,COCCOc1cc2nccc(Oc3ccc(NC(=O)Nc4ccccc4OC)c(C)c3C)c2cc1OC,6.5 nM
16,C=CCNC(=O)Nc1ccc(Oc2ccnc3cc(OC)c(OC)cc23)cc1F,2.1 nM
17,COc1cc2ncnc(Oc3ccc(NC(=O)Nc4ccc(F)cc4F)cc3C)c2cc1OC,8.8 nM
18,COc1cc2ncnc(Oc3ccc(NC(=O)Nc4ccccc4C)cc3)c2cc1OC,6 nM
19,CCCCNC(=O)Nc1ccc(Oc2ncnc3cc(OC)c(OC)cc23)c(C)c1,450 nM
20,COc1cc2c(Oc3cc(C)c(NC(=O)Nc4ccc(F)cc4F)cc3C)ccnc2cc1OCCN1CCOCC1,4.4 nM
21,COc1cc2nccc(Oc3c(Cl)cc(NC(=O)Nc4ccc(F)cc4F)cc3Cl)c2cc1OC,4.3 nM

# Further lines, results first:
row,IC50,SMILES
1,4 nM,CCCNC(=O)Nc1ccc(Oc2ccnc3cc(OC)c(OC)cc23)cc1[N+](=O)[O-]
2,15 nM,COc1cc2nccc(Oc3ccc(NC(=O)NCC(C)C)c(F)c3)c2cc1OC
3,1.8 nM,COc1cc2ncnc(Oc3ccc(NC(=O)Nc4ccc(F)cc4F)c(F)c3)c2cc1OC
4,0.6 nM,COc1ccccc1NC(=O)Nc1ccc(Oc2ccnc3cc(OC)c(OC)cc23)cc1Cl
5,750 nM,COc1cc2ncnc(Oc3ccc(NC(=O)NCc4ccccn4)cc3)c2cc1OC
6,2.7 nM,COc1cc2ncnc(Oc3ccc(NC(=O)Nc4ccccc4C)c(F)c3)c2cc1OC
7,2.9 nM,CCCNC(=O)Nc1ccc(Oc2ccnc3cc(OC)c(OC)cc23)cc1F
8,2.3 nM,COc1cc2nccc(Oc3cc(C)c(NC(=O)Nc4ccc(F)cc4F)cc3C)c2cc1OC
9,4.2 nM,COc1cc2nccc(Oc3ccc(NC(=O)Nc4ccc(C)cn4)c(C)c3C)c2cc1OC
10,5.1 nM,COCCOc1cc2nccc(Oc3ccc(NC(=O)Nc4ccc(F)cc4F)c(C)c3C)c2cc1OC
11,3.4 nM,COc1cc2nccc(Oc3ccc(NC(=O)Nc4cccc(C)n4)c(Cl)c3)c2cc1OC
12,3.3 nM,COc1ccc(NC(=O)Nc2ccc(Oc3ccnc4cc(OC)c(OC)cc34)c(C)c2C)cc1
13,0.5 nM,COc1cc2c(Oc3ccc(NC(=O)Nc4ccc(F)cc4F)c(F)c3)ccnc2cc1OCCN1CCOCC1
14,3.8 nM,COc1cc2ncnc(Oc3ccc(NC(=O)NCc4ccc(F)cc4F)c(Cl)c3)c2cc1OC
15,> 1000 nM,COc1cc2ncnc(Oc3ccc(NC(=O)NCc4ccccn4)c(Cl)c3)c2cc1OC
16,2.8 nM,COCCOc1cc2nccc(Oc3ccc(NC(=O)Nc4ccccc4OC)c(Cl)c3)c2cc1OC
17,4 nM,COc1cc2nccc(Oc3ccc(NC(=O)Nc4ccc(Cl)cn4)c(C)c3C)c2cc1OC
18,4.9 nM,COc1cc2nccc(Oc3cc(C)c(NC(=O)Nc4cccc(F)c4OC)cc3C)c2cc1OC
19,6800 nM,COc1cc2ncnc(Oc3ccc(NC(=O)NCc4ccc(F)cc4F)cc3)c2cc1OC
20,345 nM,CCC(C)NC(=O)Nc1ccc(Oc2ncnc3cc(OC)c(OC)cc23)cc1 (stereo not drawn)
21,2.5 nM,COc1cc2nccc(Oc3ccc(NC(=O)Nc4ccccc4C)c(C)c3C)c2cc1OC
22,7.8 nM,CCC(C)NC(=O)Nc1ccc(Oc2ccnc3cc(OC)c(OC)cc23)cc1F (stereo not drawn)
23,46 nM,C#CCNC(=O)Nc1ccc(Oc2ncnc3cc(OC)c(OC)cc23)cc1F

row,IC50,SMILES
1,42 nM,CCCNC(=O)Nc1ccc(Oc2ncnc3cc(OC)c(OC)cc23)cc1
2,13 nM,C=CCNC(=O)Nc1ccc(Oc2ncnc3cc(OC)c(OC)cc23)cc1Cl
3,16 nM,CCCNC(=O)Nc1ccc(Oc2ncnc3cc(OC)c(OC)cc23)cc1Cl
4,8.5 nM,COc1cc2nccc(Oc3ccc(NC(=O)Nc4ccc(C)cn4)c(Cl)c3)c2cc1OC
5,3.8 nM,COc1ccccc1NC(=O)Nc1cc(C)c(Oc2ccnc3cc(OC)c(OC)cc23)cc1C
6,11 nM,COc1cc2nccc(Oc3ccc(NC(=O)Nc4ccc(Br)cn4)c(Cl)c3)c2cc1OC
7,4.3 nM,COc1ccc(NC(=O)Nc2cc(C)c(Oc3ccnc4cc(OC)c(OC)cc34)cc2C)cc1
8,5.3 nM,COc1cc2nccc(Oc3ccc(NC(=O)Nc4cccc(F)c4OC)c(C)c3C)c2cc1OC
9,< 1 nM,COc1ccccc1NC(=O)Nc1ccc(Oc2ncnc3cc(OC)c(OC)cc23)cc1C
10,45 nM,C=CCNC(=O)Nc1ccc(Oc2ncnc3cc(OC)c(OC)cc23)cc1
11,42 nM,CCC(C)NC(=O)Nc1ccc(Oc2ncnc3cc(OC)c(OC)cc23)cc1F (stereo not drawn)
12,4.1 nM,CCCCCNC(=O)Nc1ccc(Oc2ncnc3cc(OC)c(OC)cc23)cc1Cl
13,12 nM,COc1cc2nccc(Oc3cc(C)c(NC(=O)Nc4ccc(F)cc4C)cc3C)c2cc1OC
14,30 nM,CCC(C)NC(=O)Nc1ccc(Oc2ncnc3cc(OC)c(OC)cc23)cc1Cl (stereo not drawn)
15,0.7 nM,COc1cc2nccc(Oc3ccc(NC(=O)Nc4ccc(F)cc4C)c(Cl)c3)c2cc1OC
16,0.7 nM,COc1cc2ncnc(Oc3ccc(NC(=O)Nc4ccc(F)cc4)c(Cl)c3)c2cc1OC
17,0.4 nM,COc1ccc(NC(=O)Nc2ccc(Oc3ccnc4cc(OC)c(OC)cc34)cc2Cl)cc1
18,5.1 nM,COCCOc1cc2nccc(Oc3cc(C)c(NC(=O)Nc4ccc(F)cc4F)cc3C)c2cc1OC
19,3.7 nM,COc1cc2nccc(Oc3ccc(NC(=O)Nc4cccc(C)n4)c(C)c3C)c2cc1OC
20,5.1 nM,CCCCNC(=O)Nc1ccc(Oc2ccnc3cc(OC)c(OC)cc23)cc1F
21,10.2 nM,CCCNC(=O)Nc1ccc(Oc2ncnc3cc(OC)c(OC)cc23)cc1[N+](=O)[O-]
22,2.9 nM,COc1cc2nccc(Oc3ccc(NC(=O)Nc4ccc(Cl)cn4)c(Cl)c3)c2cc1OC
